Measurements reported in US11999728B2, “Estrogen receptor modulators” (Recurium IP Holdings, LLC, priority 2020, dated 2024).

Key:
MCF7 = test: Breast Cancer Cell Proliferation Assay (MCF-7), Cell Titer-Glo; format: cell-based; conditions: Homo sapiens, MCF7 cells, 5 days of compound exposure
Procedure: Breast Cancer Cell Proliferation Assay (MCF-7)
MCF7 was expanded and maintained in the medium (Phenol red free DMEM/F12 (Hyclone SH30272.01) NEAA (Gibco11140-050) Na-pyruvate (Gibco 11360-070) and Re-stripped Charcoal stripped FBS (Gemini 100-119)). The cells were adjusted to a concentration of 3,000 cells per mL in the above media, and the cells were incubated (37° C., 5% CO2). The following day a 10-point, serial dilution of compounds was added to the cells at a final concentration ranging from 10-0.000005 μM for test compounds (17β-estradiol was used as a control). Additional cells were plated in 30 wells to serve as the day 1 (pretreatment) comparison. After 5 days of compound exposure, Cell Titer-Glo reagent was added to the cells and the relative luminescence units (RLUs) of each well was determined. Cell Titer-Glo was also added to 32 μL of medium without cells to obtain a background value. The plates were allowed to incubate at room temperature for 10 minutes to stabilize luminescent signal and the luminescence signal was recorded with EnSpire. The relative increase in cell number of each sample is determined as follows: (RLU sample-RLU background/RLU estrogen only treated cells-RLU background)×100=% inhibition.

[1] = Pharmacokinetic Determination (Mouse PK); format: in vivo, female CD-1 mice; conditions: female; for AUC(0-t) / bioavailability / Cmax / Tmax / half-life / clearance / Vd: CD-1, plasma; for bioavailability: PO 10.0 mg/kg vs IV 3.0 mg/kg; for Kp at 2 h: CD-1, PO 10.0 mg/kg, Brain concentration vs plasma concentration at 2 hours post dosing, read-out: B/P ratio; for Vd: read-out: Vdss
Procedure: Pharmacokinetic Determination
Grouping female CD-1 mice weighing 20-30 g randomly to three groups; one group was administered with test compound at a dose of 3.0 mg/kg by intravenous injection, the other two groups were administered with test compound at a dose of 10.0 mg/kg by oral. The formulation for IV groups is DMSO/PEG400/30% HP-β-CD (5/20/75) and the formulation for PO groups is 25% HP-β-CD in 25 mM citrate buffer (pH3.0). After administering, blood samples of intravenous injection group were collected at time points of predose, 0.0833, 0.25, 0.5, 1, 2, 4, 8, 12 and 24 h; blood samples of oral group were collected at time points of predose, 0.25, 0.5, 1, 2, 4, 8, 12, and 24 h. Both blood samples and brain samples were collected at 2 hours post dosing for the second PO group. Standard curve was plotted based on concentrations of the samples in a suitable range, the concentrations of test compounds in plasma samples and brain samples were determined by using LC-MS/MS. Pharmacokinetic parameters were calculated according to drug concentration-time curve using a noncompartmental method by WinNonLin (Phoenix™, version 6.1) or other similar software.

| Compound | IC50 (MCF7; MCF7, 120 h) [nM] | AUC(0-t) ([1]; IV, 3.0 mg/kg) [µM·h] | bioavailability [1] [%] | AUC(0-t) ([1]; PO, 10.0 mg/kg) [µM·h] | Cmax ([1]; PO, 10.0 mg/kg) [nM] | Tmax ([1]; PO, 10.0 mg/kg) [h] | half-life ([1]; PO, 10.0 mg/kg) [h] | IC50 (MCF7; 120 h) [nM] | Kp at 2 h [1] | clearance ([1]; IV, 3.0 mg/kg) [mL/min/kg] | half-life ([1]; IV, 3.0 mg/kg) [h] | Vd ([1]; IV, 3.0 mg/kg) [L/kg] |
| --- | --- | --- | --- | --- | --- | --- | --- | --- | --- | --- | --- | --- |
| C[C@@H]1Cc2c([nH]c3ccccc23)[C@@H](c2ccc(NC3CN(CCCF)C3)nc2)N1C12CC(C1)C2 [Compound 21, 5-((1R,3R)-2-(bicyclo[1.1.1]pentan-1-yl)-3-methyl-2,3,4,9-tetrahydro-1H-pyrido[3,4-b]indol-1-yl)-N-(1-(3-fluoropropyl)azetidin-3-yl)pyridin-2-amine] | > 250 | 0.59 | 5.03 | 0.1 | 60 | 0.25 | 1.01 | – | – | – | – | – |
| C[C@@H]1Cc2c([nH]c3ccccc23)[C@@H](c2ccc(NC3CN(CCCF)C3)cn2)N1C12CC(C1)C2 [Compound 2, 6-((1S,3R)-2-(bicyclo[1.1.1]pentan-1-yl)-3-methyl-2,3,4,9-tetrahydro-1H-pyrido[3,4-b]indol-1-yl)-N-(1-(3-fluoropropyl)azetidin-3-yl)pyridin-3-amine] | – | 1.74 | 43.3 | 2.51 | 358 | 1 | 7.23 | ≤ 25 | 2.87 | 55.8 | 8.78 | 31.9 |
| CCCN1CC[C@H](Nc2ccc([C@@H]3c4[nH]c5ccccc5c4C[C@@H](C)N3C34CC(C3)C4)cc2)C1 [Compound 72, (S)—N-(4-((1R,3R)-2-(bicyclo[1.1.1]pentan-1-yl)-3-methyl-2,3,4,9-tetrahydro-1H-pyrido[3,4-b]indol-1-yl)phenyl)-1-propylpyrrolidin-3-amine] | ≤ 25 | 2.17 | 51.5 | 3.73 | 240 | 4 | – | – | 8.82 | – | – | – |
| C[C@@H]1Cc2c([nH]c3ccccc23)[C@@H](c2ccc(NC3CN(CCCF)C3)cc2)N1C12CC(CO)(C1)C2 (single isomer, unassigned) [Compound 58] | ≤ 25 | 1.04 | 31.8 | 1.1 | 80 | 2 | 5.56 | – | – | 92 | 7.08 | 42.3 |
| C[C@@H]1Cc2c([nH]c3ccccc23)[C@@H](c2c(F)cc(N[C@H]3CCN(CCCF)C3)cc2F)N1C12CC(CO)(C1)C2 (single isomer, unassigned) [Compound 70] | ≤ 25 | 2.46 | 21.4 | 2.09 | 210 | 2 | 5.25 | – | – | 36.1 | 6.51 | 12.2 |
| C[C@@H]1Cc2c([nH]c3ccccc23)[C@@H](c2c(F)cc(NC3CN(CCCF)C3)cc2F)N1C12CC(C1)C2 [Compound 1, N-(4-((1R,3R)-2-(bicyclo[1.1.1]pentan-1-yl)-3-methyl-2,3,4,9-tetrahydro-1H-pyrido[3,4-b]indol-1-yl)-3,5-difluorophenyl)-1-(3-fluoropropyl)azetidin-3-amine] | – | 2.79 | 52.4 | 4.88 | 466 | 2 | 10.5 | ≤ 25 | 11 | 24.2 | 18 | 31.9 |
| C[C@@H]1Cc2c(ccc3[nH]ncc23)[C@@H](c2ccc(NC3CN(CCCF)C3)cn2)N1CC(F)(F)F [AZD9833, reference compound] | ≤ 25 | – | – | 4.19 | 649 | 2 | 2.34 | – | 0.23 | – | – | – |
| C[C@@H]1Cc2c([nH]c3ccccc23)[C@@H](c2ccc(N[C@@H]3CN(CCCF)C[C@H]3F)cc2)N1C12CC(C1)C2 [Compound 75, (3R,4R)—N-(4-((1R,3R)-2-(bicyclo[1.1.1]pentan-1-yl)-3-methyl-2,3,4,9-tetrahydro-1H-pyrido[3,4-b]indol-1-yl)phenyl)-4-fluoro-1-(3-fluoropropyl)pyrrolidin-3-amine] | ≤ 25 | 1.49 | 59.2 | 2.94 | 840 | 0.5 | 7.38 | – | 6.84 | 66.1 | 7.29 | 17.9 |
| C[C@@H]1Cc2c([nH]c3ccccc23)[C@@H](c2ccc(O[C@H]3CCN(CCCF)C3)nc2)N1C12CC(C1)C2 (single isomer, unassigned) [Compound 10] | ≤ 25 | 1.03 | 15.3 | 0.527 | 178 | 0.5 | 2.12 | – | 7.51 | 101 | 2.19 | 12.8 |
| C[C@@H]1Cc2c([nH]c3ccccc23)[C@@H](c2c(F)cc(N[C@H]3CCN(CCCF)C3)cc2F)N1C12CC(C1)C2 [Compound 19, (S)—N-(4-((1R,3R)-2-(bicyclo[1.1.1]pentan-1-yl)-3-methyl-2,3,4,9-tetrahydro-1H-pyrido[3,4-b]indol-1-yl)-3,5-difluorophenyl)-1-(3-fluoropropyl)pyrrolidin-3-amine] | ≤ 25 | 2.15 | 69.8 | 5 | 440 | 1 | 8.5 | – | 12.3 | 47.6 | 6.58 | 23.2 |
| C[C@@H]1Cc2c([nH]c3ccccc23)[C@@H](c2c(F)cc(O[C@@H]3CCN(CCCF)C3)cc2F)N1C12CC(C1)C2 (single isomer, unassigned) [Compound 5] | 25 to 250 | 2.93 | 49.5 | 4.84 | 610 | 1 | 9.4 | – | 7.07 | 30.2 | 9.1 | 16.7 |
| C[C@@H]1Cc2c([nH]c3ccccc23)[C@@H](c2ccc(NC3CN(CCCF)C3)cc2)N1C12CC(C1)C2 [Compound 40, N-(4-((1R,3R)-2-(bicyclo[1.1.1]pentan-1-yl)-3-methyl-2,3,4,9-tetrahydro-1H-pyrido[3,4-b]indol-1-yl)phenyl)-1-(3-fluoropropyl)azetidin-3-amine] | ≤ 25 | 1.47 | 70.5 | 3.46 | 261 | 1 | – | – | 13.5 | 64.2 | 11.5 | 49.6 |
| C[C@H]1Cc2c([nH]c3ccccc23)[C@H](c2c(F)cc(O[C@H]3CCN(CCCF)C3)cc2F)N1C12CC(C(N)=O)(C1)C2 (single isomer, unassigned) [Compound 32] | ≥ 250 | – | – | – | – | – | – | – | – | – | – | – |
| C[C@@H]1Cc2c([nH]c3ccccc23)[C@@H](c2ccc(O[C@@H]3CCN(CCCF)C3)cc2)N1C12CC(C1)C2 (single isomer, unassigned) [Compound 7] | 25 to 250 | – | – | – | – | – | – | – | – | – | – | – |
| C[C@H]1Cc2c([nH]c3ccccc23)[C@H](c2c(F)cc(N[C@H]3CCN(CCCF)C3)cc2F)N1C12CC(CO)(C1)C2 (single isomer, unassigned) [Compound 71] | ≤ 25 | – | – | – | – | – | – | – | – | – | – | – |
| C[C@@H]1Cc2c([nH]c3ccccc23)[C@@H](c2c(F)cc(O[C@@H]3CCN(CCCF)C3)cc2F)N1C12CC(C#N)(C1)C2 (single isomer, unassigned) [Compound 37] | ≤ 25 | – | – | – | – | – | – | – | – | – | – | – |
| C[C@@H]1Cc2c([nH]c3ccccc23)[C@@H](c2cnc(NC3CN(CCCF)C3)nc2)N1C12CC(C1)C2 [Compound 57, 5-((1R,3R)-2-(bicyclo[1.1.1]pentan-1-yl)-3-methyl-2,3,4,9-tetrahydro-1H-pyrido[3,4-b]indol-1-yl)-N-(1-(3-fluoropropyl)azetidin-3-yl)pyrimidin-2-amine] | 25 to 250 | – | – | – | – | – | – | – | – | – | – | – |
| C[C@H](F)CN1CC(Nc2ccc([C@@H]3c4[nH]c5ccccc5c4C[C@@H](C)N3C34CC(C3)C4)cc2)C1 (single isomer, unassigned) [Compound 83] | ≤ 25 | – | – | – | – | – | – | – | – | – | – | – |
